Test results reported in patent US20250161233A1, “VINYLATION COUPLED DERIVATIVE OF BETA-ELEMENE, AND PREPARATION METHOD AND USE THEREOF IN PREPARATION OF ANTITUMOR DRUG” (HANGZHOU NORMAL UNIVERSITY, priority 2022, published 2025).
Each block holds one compound with its values, some of them ahead of it.

Columns and labels:
[1] = test system: human lung cancer cells (A549); assay: Tumor cell proliferation inhibition (CCK-8), A549; type: cell-based; conditions: 48 h; for inhibition at 100 µM: read-out: Anti-proliferative activity at 100 μM by concentration (%) A549 (tumor cell inhibition rate)
Procedure: (§1) Human colon cancer cells (HCT116), human lung cancer cells (A549).
(§2) 1) The test cells in a logarithmic growth phase were trypsinized and counted, inoculated in a 96-well culture plate at a concentration of 5×10^4/mL, 100 μL per well (5×10^3 cells per well), and incubated at 37° C. in a 5% CO2 incubator for 24 h.
(§3) 2) A drug to be tested was diluted to different concentrations with McCoy'S 5A or RPMI 1640 complete medium. The experimental group was replaced with a culture solution containing different concentrations of the tested samples, and the control group was replaced with a culture solution containing the same volume of solvent (DMSO). Three parallel wells were set up in each group, and the culture was continued for 48 h in a 5% CO2 incubator at 37° C.
(§4) HCT116 cells used the McCoy'S 5A complete medium, and A549 cells used the RPMI 1640 complete medium.
(§5) 3) 10 μL of a CCK-8 solution was added to each well, incubated at 37° C. for 1 h to 4 h, and an absorbance (OD value) of each well at 490 nm was measured with a microplate reader.
(§6) 4) A survival rate and an inhibition rate were calculated with the following formulas:
(§7) Cell survival rate=[(As−Ab)/(Ac−Ab)]×100%
(§8) Inhibition rate=[(Ac−As)/(Ac−Ab)]×100%
(§9) An S-type dose-survival curve was plotted using GraphPad Prism 7.0 software and a nonlinear regression model, and IC50 values were calculated. • As: absorbance of the experimental well (medium containing cells, CCK-8, and the drug to be tested) • Ac: absorbance of control wells (medium containing cells, CCK-8, and solvent (DMSO)) • Ab: absorbance of blank wells (medium without cells and drug to be tested, CCK-8)

[2] = test system: Human colon cancer cells (HCT116); assay: Tumor cell proliferation inhibition (CCK-8), HCT116; type: cell-based; conditions: for inhibition at 100 µM: HCT-116, 100 μM of the compound, read-out: Anti-proliferative activity at 100 μM by concentration (%) HCT116 (tumor cell inhibition rate)
Procedure: as §1, §2, §3, §4, §5, §6, §7, §8, §9

[3] = Homo sapiens, 100 μM of the compound

SMILES: C=C[C@]1(C)CC[C@@H](C(=C)C/C=C/c2ccc(-n3cncn3)cc2)C[C@H]1C(=C)C [Compound 4]
inhibition at 100 µM [1, 3]: 97.5 ± 0.4%
IC50 ([1]; Homo sapiens): 57.2 ± 2.95 µM
inhibition at 100 µM ([2]; Homo sapiens, 48 h): 99.8 ± 0.08%
IC50 ([2]; Homo sapiens, HCT-116, 48 h): 50.9 ± 0.8 µM

SMILES: C=C[C@]1(C)CC[C@@H](C(=C)C/C=C/c2ccc(C(=O)OCC[C@@H](C)CCC=C(C)C)cc2)C[C@H]1C(=C)C [Compound 6]
inhibition at 100 µM [1, 3]: 14.4 ± 0.5%
inhibition at 100 µM ([2]; Homo sapiens, 48 h): 21.7 ± 0.8%

SMILES: C=C[C@]1(C)CC[C@@H](C(=C)C/C=C/c2ccc(C(=O)OCCOc3ccc(/C(=C(/CCCl)c4ccccc4)c4ccccc4)cc3)cc2)C[C@H]1C(=C)C [Compound 10]
inhibition at 100 µM [1, 3]: 40.4 ± 0.6%
inhibition at 100 µM ([2]; Homo sapiens, 48 h): 13.5 ± 0.3%

IC50 [1]: 227 ± 1.2 µM
IC50 ([2]; 48 h): 782 ± 51 µM
SMILES: C=C[C@]1(C)CC[C@@H](C(=C)C)C[C@H]1C(=C)C [β-elemene, reference compound]
Anti-proliferative activity at 100 μM by concentration (%) A549 (tumor cell inhibition rate) ([1]; 100 μM of the compound): 10.6 ± 0.5%
Anti-proliferative activity at 100 μM by concentration (%) HCT116 (tumor cell inhibition rate) ([2]; 100 μM of the compound, 48 h): 0.6 ± 0.5%
